Our source for the IC50 values is US10562891B2, “Quinazolinones as PARP14 inhibitors” (Ribon Therapeutics Inc., priority 2017, dated 2020).

Structures can show the parent of a compound that is named as a salt.

The assay deals with catalytic domain of human PARP14 (Homo sapiens (Human), UniProt Q460N5). Put plainly: Enzymatic assay for inhibition of PARP14 (DELFIA, auto-modification with biotin-NAD). The assay is classed as biochemical. The note with it: auto-modification of PARP14 by biotin-NAD, 50 nM PARP14, 3 μM biotin-NAD. The essentials: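 DELFIA auto-modification read-out: europium-streptavidin bound to biotin-NAD incorporated onto nickel-captured His-TEV PARP14 catalytic domain. Compound preincubated 30 min, then 50 nM enzyme with 3 μM biotin-NAD reacted 3 h, all at 25 °C, pH 8, then NAD quench. Percent inhibition normalized to rucaparib/DMSO wells, fitted (4- or 3-parameter) for IC50.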
Sequence of catalytic domain of human PARP14 (Q460N5 1611-1801): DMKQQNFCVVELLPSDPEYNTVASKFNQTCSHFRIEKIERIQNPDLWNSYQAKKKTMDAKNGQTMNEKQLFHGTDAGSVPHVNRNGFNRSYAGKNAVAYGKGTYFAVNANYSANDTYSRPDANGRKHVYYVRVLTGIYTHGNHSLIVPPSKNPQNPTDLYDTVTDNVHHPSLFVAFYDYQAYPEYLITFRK
Take `O=c1[nH]c(CSC2CCNCC2)nc2cc(NC3CCCCC3)cc(F)c12` [Example 248, 7-(Cyclohexylamino)-5-fluoro-2-((piperidin-4-ylthio)methyl)quinazolin-4(3H)-one]: the IC50 was less than 1000 nM. On to `C[C@]1(O)C[C@@H](COc2cc(F)c3c(=O)[nH]c(CSC4CCOCC4)nc3c2)C1` [Example 386], for which the 50% inhibitory concentration (IC50) is less than 1000 nM. Next, `O=c1[nH]c(CSC2CCOCC2)nc2cc(NC3CCCC3)cnc12` [Example 188, 7-(cyclopentylamino)-2-(((tetrahydro-2H-pyran-4-yl)thio)methyl)pyrido[3,2-d]pyrimidin-4(3H)-one]: greater than 10000 nM. Next, `Cc1cccc2c(=O)[nH]c(CSC3CCN(C(=O)CCc4ccccn4)CC3)nc12` [Example 173, 8-Methyl-2-(((1-(3-(pyridin-2-yl)propanoyl)piperidin-4-yl)thio)methyl) quinazolin-4(3H)-one]: 1000 to 10000 nM. The result for `Cc1cccc2c(=O)[nH]c(CS(=O)(=O)C3CCOCC3)nc12` [Example 19, 8-Methyl-2-(((tetrahydro-2H-pyran-4-yl)sulfonyl)methyl)quinazolin-4(3H)-one] reads greater than 10000 nM; that for `O=c1[nH]c(CSC2CCNCC2)nc2cc(NCC3CC3(F)F)cc(F)c12` (stereo not drawn) [Example 262, 7-(((2,2-Difluorocyclopropyl)methyl)amino)-5-fluoro-2-((piperidin-4-ylthio)methyl)quinazolin-4(3H)-one], less than 1000 nM; that for `Cc1cccc2c(=O)[nH]c(CSC3CCN(CCCN)CC3)nc12` [Example 165, 2-(((1-(3-Aminopropyl)piperidin-4-yl)thio)methyl)-8-methylquinazolin-4(3H)-one dihydrochloride], less than 1000 nM.

Take `O=c1[nH]c(CSC2CCNCC2)nc2cc(NCCN3CCOCC3)cc(F)c12` [Example 277, 5-Fluoro-7-((2-morpholinoethyl)amino)-2-((piperidin-4-ylthio)methyl)quinazolin-4(3H)-one dihydrochloride]: the IC50 was less than 1000 nM. For `O=c1[nH]c(CSC2CCNCC2)nc2cc(NC3CCCC3)c(F)c(F)c12` [Example 232, 7-(Cyclopentylamino)-5,6-difluoro-2-((piperidin-4-ylthio)methyl)quinazolin-4(3H)-one Hydrochloride], the IC50 was less than 1000 nM. Next, `O=c1[nH]c(CSC2CCOCC2)nc2cc(NC3CCOCC3)c(F)cc12` [Example 245, 6-Fluoro-7-((tetrahydro-2H-pyran-4-yl)amino)-2-(((tetrahydro-2H-pyran-4-yl)thio)methyl)quinazolin-4(3H)-one]: 1000 to 10000 nM. `Cc1cccc2c(=O)[nH]c(CS[C@H]3CC[C@H](CO)CC3)nc12` [Example 62, 2-(((trans-4-(Hydroxymethyl)cyclohexyl)thio)methyl)-8-methylquinazolin-4(3H)-one] showed an IC50 of less than 1000 nM. For `COC(C)(C)CNc1cc2nc(CSC3CCOCC3)[nH]c(=O)c2c(F)c1F` [Example 407], the IC50 fell in the range of 1000 to 10000 nM. The result for `Cc1ccc2nc(CSC3CCOCC3)[nH]c(=O)c2c1` [Example 3] reads 1000 to 10000 nM; that for `CNC[C@H]1CC[C@H](SCc2nc3c(C)cccc3c(=O)[nH]2)CC1` [Example 73, 8-Methyl-2-(((trans-4-((methylamino)methyl)cyclohexyl)thio)methyl) quinazolin-4(3H)-one], less than 1000 nM. For `O=c1[nH]c(CS[C@H]2CC[C@@H](OC(F)(F)F)CC2)nc2cc(OCC3CCOCC3)cc(F)c12` [Example 418], the IC50 is less than 1000 nM. Next, `CC(=O)N1CCC(COc2cc(F)c3c(=O)[nH]c(CS[C@H]4CC[C@@H](O)CC4)nc3c2)CC1` [Example 422]: less than 1000 nM. As to `Cc1cccc2c(=O)[nH]c(CSC3CCOCC3)nc12` [Example 2], the IC50 was less than 1000 nM. The result for `Cc1ccc(C(F)(F)F)c2c(=O)[nH]c(CS[C@H]3CC[C@H](O)CC3)nc12` [Example 60, 2-(((trans-4-Hydroxycyclohexyl)thio)methyl)-8-methyl-5-(trifluoromethyl) quinazolin-4(3H)-one] reads less than 1000 nM; that for `O=c1[nH]c(CS[C@H]2CC[C@H](OC(F)(F)F)CC2)nc2cc(OCC3CCOCC3)cc(F)c12` [Example 375], less than 1000 nM; that for `O=c1[nH]c(CS[C@H]2CC[C@@H](CO)CC2)nc2cc(Nc3cccnc3)ccc12` [Example 106, 2-(((cis-4-(Hydroxymethyl)cyclohexyl)thio)methyl)-7-(pyridin-3-ylamino) quinazolin-4(3H)-one], 1000 to 10000 nM. Take `CNc1cc2nc(CSC3CCOCC3)[nH]c(=O)c2c(F)c1F` [Example 420]: the IC50 is less than 1000 nM.

Take `O=c1[nH]c(CSC2CCNCC2)nc2cc(NCC3CCOCC3)cc(F)c12` [Example 272, 5-Fluoro-2-((piperidin-4-ylthio)methyl)-7-(((tetrahydro-2H-pyran-4-yl)methyl)amino)quinazolin-4(3H)-one]: the IC50 is 1000 to 10000 nM.

Compound `CO[C@H]1C[C@@H](Nc2cc3nc(CSC4CCOCC4)[nH]c(=O)c3c(F)c2F)C1` [Example 328, 5,6-Difluoro-7-(((cis)-3-methoxycyclobutyl)amino)-2-(((tetrahydro-2H-pyran-4-yl)thio)methyl)quinazolin-4(3H)-one] returned an IC50 of less than 1000 nM. The result for `O=c1[nH]c(CS[C@H]2CC[C@H](CO)CC2)nc2cc(Nc3cccnc3)ccc12` [Example 107, 2-(((trans-4-(Hydroxymethyl)cyclohexyl)thio)methyl)-7-(pyridin-3-ylamino) quinazolin-4(3H)-one] reads less than 1000 nM; that for `O=c1[nH]c(CSC2CCOCC2)nc2cc(Cc3ccccc3)ccc12` [Example 11], greater than 10000 nM. In the case of `Cc1cccc2c(=O)[nH]c(CS[C@H]3CC[C@@H](CO)CC3)nc12` [Example 63, 2-(((cis-4-(Hydroxymethyl)cyclohexyl)thio)methyl)-8-methylquinazolin-4(3H)-one], the IC50 was 1000 to 10000 nM. Next, `Cc1cccc2c(=O)[nH]c(CSC3CCN(CCNC(=O)c4ccccn4)CC3)nc12` [Example 164, N-(2-(4-(((8-Methyl-4-oxo-3,4-dihydroquinazolin-2-yl)methyl)thio)piperidin-1-yl)ethyl)picolinamide]: 1000 to 10000 nM.

As for `O=c1[nH]c(CSC2CCOCC2)nc2cc(Oc3ccccc3)ccc12` [Example 29, 7-Phenoxy-2-(((tetrahydro-2H-pyran-4-yl)thio)methyl)quinazolin-4(3H)-one], the IC50 was in the range of 1000 to 10000 nM. Next, `Cc1ccc(F)c2c(=O)[nH]c(CS[C@H]3CC[C@H](O)CC3)nc12` [Example 57, 5-Fluoro-2-(((trans-4-hydroxycyclohexyl)thio)methyl)-8-methylquinazolin-4(3H)-one]: less than 1000 nM; `C[C@]1(O)CC[C@@H](SCc2nc3cc(OCC4CCOCC4)cc(F)c3c(=O)[nH]2)CC1` [Example 411]: less than 1000 nM; `O=c1[nH]c(CS[C@H]2CCNC[C@H]2F)nc2cc(NCC3CCC3)c(F)cc12` (relative stereo) [Example 303, 7-((Cyclobutylmethyl)amino)-6-fluoro-2-(((cis-3-fluoropiperidin-4-yl)thio)methyl)quinazolin-4(3H)-one hydrochloride]: less than 1000 nM. For the compound `CC(=O)N[C@H]1CC[C@H](SCc2nc3cc(NC4CCC4)c(F)c(F)c3c(=O)[nH]2)CC1` [Example 392], the half-maximal inhibitory concentration (IC50) was less than 1000 nM. On to `O=c1[nH]c(CS[C@H]2CC[C@H](O)CC2)nc2cc(OCC3CCCOC3)cc(F)c12` (stereo partly drawn) [Example 318, 5-Fluoro-2-(((trans-4-hydroxycyclohexyl)thio)methyl)-7-((tetrahydro-2H-pyran-3-yl)methoxy)quinazolin-4(3H)-one], for which the IC50 is less than 1000 nM.

As for `Cc1cccc2c(=O)[nH]c(CSC3CCN(C[C@@H]4CCCN4)CC3)nc12` [Example 161, (S)-8-Methyl-2-(((1-(pyrrolidin-2-ylmethyl)piperidin-4-yl)thio)methyl) quinazolin-4(3H)-one Hydrochloride], the IC50 lay in the range of 1000 to 10000 nM.

`CC(=O)Nc1cccc(CN2CCC(SCc3nc4c(C)cccc4c(=O)[nH]3)CC2)c1` [Example 150, N-(3-((4-(((8-Methyl-4-oxo-3,4-dihydroquinazolin-2-yl)methyl)thio)piperidin-1-yl)methyl)phenyl)acetamide trifluoroacetate] came in with an IC50 of 1000 to 10000 nM. The result for `Cc1cccc2c(=O)[nH]c(CSC3CCN(Cc4cc[nH]n4)CC3)nc12` [Example 142, 2-(((1-((1H-Pyrazol-3-yl)methyl)piperidin-4-yl)thio)methyl)-8-methylquinazolin-4(3H)-one trifluoroacetate] reads less than 1000 nM; that for `Cc1cccc2c(=O)[nH]c(CSC3CCCOCC3)nc12` (stereo not drawn) [Example 198, 8-methyl-2-((oxepan-4-ylthio)methyl)quinazolin-4(3H)-one], 1000 to 10000 nM. The compound `Cc1cccc2c(=O)[nH]c(CSC3CCN(Cc4ccc(C#N)cc4)CC3)nc12` [Example 141, 4-((4-(((8-Methyl-4-oxo-3,4-dihydroquinazolin-2-yl)methyl)thio)piperidin-1-yl)methyl)benzonitrile trifluoroacetate] displayed an IC50 of 1000 to 10000 nM.

`Cc1cccc2c(=O)[nH]c(CS[C@H]3CC[C@H](CCN)CC3)nc12` [Example 181, 2-((((trans)-4-(2-aminoethyl)cyclohexyl)thio)methyl)-8-methylquinazolin-4(3H)-one] returned an IC50 of less than 1000 nM. Take `O=c1[nH]c(CSC2CCOCC2)nc2cc(OC[C@@H]3CCCO3)cc(F)c12` [Example 321b, (S)-5-Fluoro-2-(((tetrahydro-2H-pyran-4-yl)thio)methyl)-7-((tetrahydrofuran-2-yl)methoxy)quinazolin-4(3H)-one]: the IC50 is less than 1000 nM. Next, `O=c1[nH]c(CSC2CCNCC2)nc2cc(NC3CCC3)cc(F)c12` [Example 177, 7-(Cyclobutylamino)-5-fluoro-2-((piperidin-4-ylthio)methyl)quinazolin-4(3H)-one Hydrochloride]: less than 1000 nM; `CC(=O)N[C@H]1CC[C@H](SCc2nc3cc(OCC4CCOCC4)cc(F)c3c(=O)[nH]2)CC1` [Example 426]: less than 1000 nM.
